Measurements: ChEMBL document CHEMBL1147301, “Studies on inhibitors of skin-tumor promotion. Inhibitory effects of triterpenes from Cochlospermum tinctorium on Epstein-Barr virus activation” (J Nat Prod, 1989)

Experiments:
Raji [1] = experiment: Inhibition of EBV-early antigen activation in human Raji cells assessed as early antigen activation at 4 mM; format: cell-based; design: scale not given: the % may be the effect or the level left; conditions: human gammaherpesvirus 4
Raji [2] = experiment: Inhibition of 12-O-tetradecanoylphorbol-13-acetate-induced EBV-early antigen activation in human Raji cells assessed as early antigen activation at 4 mM ratio relative to TPA; format: cell-based; design: scale not given: the % may be the effect or the level left; conditions: human gammaherpesvirus 4

## CCCC(=O)O
Raji [1]
  Activity: 0.1%
Raji [2]
  Activity: 34.5%
